In this assay the target is T1, VLA-4 (α4β1 integrin) binding to immobilized VCAM-1 (Homo sapiens, UniProt P05556+P13612).
T1 construct: followed by 10 μl of Ramos cell-derived VLA-4; endogenous in cells; host or cells: Ramos cells (VLA-4 preparation derived from the cells)
The assay can be described thus: VLA-4/VCAM-1 Screening Assay (solid-phase, dual antibody ELISA). The note with it: for IC50: Ramos cell-derived VLA-4, recombinant human VCAM-1 coated plates, 2 hr at 37° C., read-out: IC50. The method, then:
VLA-4 antagonist activity, defined as ability to compete for binding to immobilized VCAM-1 was quantitated using a solid-phase, dual antibody ELISA. VLA-4 (α4β1 integrin) bound to VCAM-1 was detected by a complex of anti-integrin β1 antibody: HRP-conjugated anti-mouse IgG: chromogenic substrate (K-Blue). Initially, this entailed coating 96 well plates (Nunc Maxisorp) with recombinant human VCAM-1 (0.4 μg in 100 μl PBS), sealing each plate and then allowing the plates to stand at 4° C for Å18 hr. […] On the day of assay, all plates were washed twice with VCAM Assay Buffer (200 μl/well of 50 mM Tris-HCl, 100 mM NaCl, 1 mM MnCl2, 0.05% Tween 20; pH 7.4). Test compounds were dissolved in 100% DMSO and then diluted 1:20 in VCAM Assay Buffer supplemented with 1 mg/mL BSA (i.e., final DMSO=5%). […] 100 μl per well of each dilution was added to the VCAM-coated plates, followed by 10 μl of Ramos cell-derived VLA-4. These plates were sequentially mixed on a platform shaker for 1 min, incubated for 2 hr at 37° C. and then washed four times with 200 μl/well VCAM Assay Buffer. 100 μl of mouse anti-human integrin β1 antibody was added to each well (0.6 μg/mL in VCAM Assay Buffer+1 mg/mL BSA) and allowed to incubate for 1 hr at 37° C. At the conclusion of this incubation period, all plates were washed four times with VCAM Assay Buffer (200 μl/well). A corresponding second antibody, HRP-conjugated goat anti-mouse IgG (100 μl per well @1:800 dilution in VCAM Assay Buffer+1 mg/mL BSA), was then added to each well, followed by a 1 hr incubation at room temperature and concluded by three washes (200 μl/well) with VCAM Assay Buffer. Color development was initiated by addition of 100 μl K-Blue per well (15 min incubation, room temp) and terminated by addition of 100 μl Red Stop Buffer per well. […] Results were calculated as % inhibition of total binding (i.e., VLA-4+VCAM-1 in the absence of test compound).

Structures can show the parent of a compound that is named as a salt.

Consider 38 compounds from patent US6455550B1, “N-alkanoylphenylalanine derivatives” (Hoffmann-La Roche Inc., priority 1997, dated 2002).

T1 sequence (P13612 34-1032): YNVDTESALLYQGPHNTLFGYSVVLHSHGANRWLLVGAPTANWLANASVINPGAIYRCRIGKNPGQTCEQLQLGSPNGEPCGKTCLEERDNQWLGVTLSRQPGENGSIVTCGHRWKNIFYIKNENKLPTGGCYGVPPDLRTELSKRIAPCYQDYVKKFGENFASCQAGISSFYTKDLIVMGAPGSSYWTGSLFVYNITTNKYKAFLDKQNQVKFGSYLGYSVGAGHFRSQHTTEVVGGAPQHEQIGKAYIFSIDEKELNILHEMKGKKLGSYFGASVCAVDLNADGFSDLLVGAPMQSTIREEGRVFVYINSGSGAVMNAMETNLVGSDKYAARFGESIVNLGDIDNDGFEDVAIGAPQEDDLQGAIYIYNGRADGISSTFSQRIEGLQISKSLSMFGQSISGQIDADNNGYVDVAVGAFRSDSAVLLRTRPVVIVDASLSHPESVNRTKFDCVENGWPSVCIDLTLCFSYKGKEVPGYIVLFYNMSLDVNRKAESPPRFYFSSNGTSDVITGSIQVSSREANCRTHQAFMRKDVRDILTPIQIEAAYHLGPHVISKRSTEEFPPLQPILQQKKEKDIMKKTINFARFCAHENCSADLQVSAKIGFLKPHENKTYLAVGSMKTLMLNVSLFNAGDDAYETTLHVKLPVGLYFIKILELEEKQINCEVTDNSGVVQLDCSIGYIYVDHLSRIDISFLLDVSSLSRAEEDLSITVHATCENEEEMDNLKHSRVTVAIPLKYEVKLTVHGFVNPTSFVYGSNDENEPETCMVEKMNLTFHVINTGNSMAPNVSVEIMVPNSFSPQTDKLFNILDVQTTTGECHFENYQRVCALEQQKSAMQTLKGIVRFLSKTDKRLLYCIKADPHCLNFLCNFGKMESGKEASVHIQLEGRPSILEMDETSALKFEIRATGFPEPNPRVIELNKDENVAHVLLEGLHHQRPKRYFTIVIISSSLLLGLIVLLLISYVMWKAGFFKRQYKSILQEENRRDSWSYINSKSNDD
T1 sequence (P05556 21-798): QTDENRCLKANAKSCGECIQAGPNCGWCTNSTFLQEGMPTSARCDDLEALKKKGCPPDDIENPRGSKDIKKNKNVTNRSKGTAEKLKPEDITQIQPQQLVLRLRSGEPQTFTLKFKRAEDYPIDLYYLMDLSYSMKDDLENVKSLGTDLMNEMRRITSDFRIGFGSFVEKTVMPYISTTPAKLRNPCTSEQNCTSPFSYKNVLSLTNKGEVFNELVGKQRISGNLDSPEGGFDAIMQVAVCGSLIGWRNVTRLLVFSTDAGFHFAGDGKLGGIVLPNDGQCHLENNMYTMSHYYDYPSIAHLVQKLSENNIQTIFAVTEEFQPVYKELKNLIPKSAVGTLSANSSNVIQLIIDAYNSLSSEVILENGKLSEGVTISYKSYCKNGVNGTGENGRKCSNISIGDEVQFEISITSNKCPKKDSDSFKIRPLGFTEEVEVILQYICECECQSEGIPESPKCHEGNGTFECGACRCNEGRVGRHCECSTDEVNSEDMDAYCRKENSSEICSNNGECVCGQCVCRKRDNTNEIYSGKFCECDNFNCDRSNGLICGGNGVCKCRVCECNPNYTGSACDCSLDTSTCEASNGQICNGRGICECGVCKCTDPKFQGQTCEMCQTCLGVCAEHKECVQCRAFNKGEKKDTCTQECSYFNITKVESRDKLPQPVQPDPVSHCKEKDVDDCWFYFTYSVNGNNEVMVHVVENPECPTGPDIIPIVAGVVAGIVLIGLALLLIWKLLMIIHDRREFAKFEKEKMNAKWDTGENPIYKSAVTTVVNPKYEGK

As to `CC(=O)N[C@@H](Cc1ccc(O)cc1)C(=O)Nc1ccc(C[C@H](NC(=O)C2(C)CC2(Cl)Cl)C(=O)O)cc1` (some centres unmarked) [Example 101], the IC50 (in general, the concentration at which inhibition is half-maximal) came out at 18.3 nM.

With `COc1ccc(CC2(C(=O)N[C@@H](Cc3ccc(NC(=O)N4CCC(C#N)(c5ccccc5)CC4)cc3)C(=O)O)CCCC2)cc1` [Example 119], the IC50 was determined as 5 nM.

For `COc1ccc(C2(C(=O)N[C@@H](Cc3ccc(N4C(=O)CSC4c4ccc5ccccc5c4)cc3)C(=O)O)CCCCC2)cc1` (stereo partly drawn) [Example 142, N-[[1-(4-methoxyphenyl)cyclohexyl]carbonyl]-4-[2-(2-naphthyl)-4-oxo-3-thiazolidinyl]-L-phenylalanine], the IC50 was found to be 1.7 nM.

As to `COCCC1(C(=O)NC(Cc2ccc(N3C(=O)C(CC(C)C)N(C(C)=O)C3c3ccc(Cl)cc3)cc2)C(=O)O)CCCC1` (single isomer, unassigned) [Example 138], the IC50 was found to be 0.42 nM.

Consider `CC(C)C(C(=O)N[C@@H](Cc1ccc(NC(=O)c2ccnc3ccccc23)cc1)C(=O)O)c1ccccc1` (some centres unmarked) [Example 76], for which the inhibition – broadly, how much of the control response was suppressed – at 0.01 µM was determined as 73%; at 0.1 µM the inhibition was 93%; the IC50 stood at 4.6 nM.

As for `COc1ccc(C2(C(=O)N[C@@H](Cc3ccc(NC(=O)c4ccc(F)cc4C(F)(F)F)cc3)C(=O)O)CCCCC2)cc1` [Example 104], the IC50 is 10.4 nM.

`COCCC1(C(=O)NC(Cc2ccc(N3C(=O)C(CC(C)C)N(C(C)=O)C3c3ccc(OC)cc3)cc2)C(=O)O)CCCC1` (single isomer, unassigned) [Example 131]: the IC50 was determined as 63 nM.

In the case of `O=C(Nc1ccc(C[C@H](NC(=O)C2(c3ccc(Cl)cc3)CCCC2)C(=O)O)cc1)c1ccnc2ccccc12` [Example 80], the inhibition at 0.01 µM was 53%, at 0.1 µM the inhibition was 89% and the IC50 amounted to 6.4 nM.

Regarding `CCOC(=O)c1ccccc1NC(=O)Nc1ccc(C[C@H](NC(=O)C2(C)CC2(Cl)Cl)C(=O)O)cc1` (some centres unmarked) [Example 121], the IC50 is 66 nM.

As for `COc1ccc(C2(C(=O)N[C@@H](Cc3ccc(NC(=O)c4cc([N+](=O)[O-])ccc4C)cc3)C(=O)O)CCCCC2)cc1` [Example 105], the IC50 turned out to be 0.83 nM.

As for `COCCC1(C(=O)NC(Cc2ccc(N3C(=O)C(CC(C)C)N(C(C)=O)C3c3ccc(Cl)cc3)cc2)C(=O)O)CCCC1` (single isomer, unassigned) [Example 132], the IC50 worked out at 2.8 nM.

For `COc1ccc(C2(C(=O)NC(Cc3ccc(NC(=O)CCN4CCCCC4)cc3)C(=O)O)CCCCC2)cc1` (centres unmarked) [Example 102], the IC50 was 0.95 nM.

`COc1ccc(CC2(C(=O)N[C@@H](Cc3ccc(NC(=O)c4ccccc4[N+](=O)[O-])cc3)C(=O)O)CCCC2)cc1` [Example 41, N-[[1-[(4-Methoxyphenyl)methyl]cyclopentyl]carbonyl]-4-[[(2-nitrophenyl)carbonyl]amino]-L-phenylalanine]: the 50% inhibitory concentration (IC50) came to 1.7 nM.

As to `COc1ccc(C2(C(=O)NC(Cc3ccc(NC(=O)CCN4CCCCC4)cc3)C(=O)O)CCCC2)cc1` (centres unmarked) [Example 93], the IC50 is 1.9 nM.

For the compound `COc1ccc(CC2(C(=O)N[C@@H](Cc3ccc(NC(=O)c4ccnc5ccccc45)cc3)C(=O)O)CCCC2)cc1` [Example 40, N-[[1-[(4-Methoxyphenyl)methyl]cyclopentyl]carbonyl]-4-[(4-quinolinylcarbonyl)amino]-L-phenylalanine], the IC50 is 2.1 nM.

With `Cn1nnnc1-c1cccc(CC2(C(=O)N[C@@H](Cc3ccc(NC(=O)c4c(Cl)cccc4Cl)cc3)C(=O)O)CCCCC2)c1` [Example 50], the IC50 is 1.3 nM.

In the case of `COCC1(C(=O)NC(Cc2ccc(NC(=O)c3c(Cl)cccc3Cl)cc2)C(=O)O)CCCC1` (centres unmarked) [Example 60], the IC50 is 1.05 nM.

As to `COc1ccc(CC2(C(=O)N[C@@H](Cc3ccc(NC(=O)c4cc([N+](=O)[O-])ccc4C)cc3)C(=O)O)CCCC2)cc1` [Example 97], the IC50 came out at 0.5 nM.

As for `O=C(Nc1ccc(C[C@H](NC(=O)C2(c3ccccc3)CCCC2)C(=O)O)cc1)c1ccnc2ccccc12` [Example 27, N-[(1-Phenylcyclopentyl)carbonyl]-4-[(4-quinolinylcarbonyl)amino]-L-phenylalanine Sodium Salt], the IC50 is 2.7 nM.

For the compound `CCCCC(C)(CC)C(=O)N[C@@H](Cc1ccc(NC(=O)c2c(Cl)cccc2Cl)cc1)C(=O)O` (some centres unmarked) [Example 88], the IC50 was found to be 3.9 nM.

`COc1ccc(C2(C(=O)NC(Cc3ccc(NC(=O)c4c(Cl)cccc4Cl)cc3)C(=O)O)CCCCC2)cc1` (centres unmarked) [Example 103]: the half-maximal inhibitory concentration (IC50) is 0.7 nM.

`COc1ccc(CC2(C(=O)N[C@@H](Cc3ccc(N4C(=O)c5ccccc5C4=O)cc3)C(=O)O)CCCC2)cc1` [Example 110]: the IC50 amounted to 8.2 nM.

Regarding `COc1ccc(C2(C(=O)N[C@@H](Cc3ccc(N4C(=O)CSC4c4ccc(O)cc4)cc3)C(=O)O)CCCCC2)cc1` (stereo partly drawn) [Example 141, 4-[2-(4-Hydroxyphenyl)-4-oxo-3-thiazolidinyl]-N-[[1-(4-methoxyphenyl)cyclohexyl]carbonyl]-L-phenylalanine], the IC50 stood at 3.9 nM.

For the compound `COc1ccc(C2(C(=O)N[C@@H](Cc3ccc(N4C(=O)[C@H](C)N(C)C4=O)cc3)C(=O)O)CCCCC2)cc1` [Example 143], the IC50 stood at 0.85 nM.

As for `COc1ccc(CC2(C(=O)N[C@@H](Cc3ccc(NC(=O)c4cc([N+](=O)[O-])ccc4C)cc3)C(=O)O)CCCC2)cc1` [Example 42, N-[[1-[(4-Methoxyphenyl)methyl]cyclopentyl]carbonyl]-4-[[(2-methyl-5-nitrophenyl)carbonyl]amino]-L-phenylalanine], the IC50 stood at 0.61 nM.

With `COCCC1(C(=O)NC(Cc2ccc(N3C(=O)C(CC(C)C)N(C(C)=O)C3c3ccc(Cl)cc3)cc2)C(=O)O)CCCC1` (single isomer, unassigned) [Example 139], the IC50 is 38 nM.

As to `O=C(Nc1ccc(C[C@H](NC(=O)C23CC4CC(CC(C4)C2)C3)C(=O)O)cc1)c1ccnc2ccccc12` [Example 65], the inhibition at 0.01 µM came out at 72%, testing at 0.1 µM gave an inhibition of 92% and the IC50 amounted to 2.4 nM.

As for `COc1ccc(CC2(C(=O)N[C@@H](Cc3ccc(NC(=O)c4ccc(F)cc4C(F)(F)F)cc3)C(=O)O)CCCC2)cc1` [Example 96], the IC50 is 17.4 nM.

As for `CCCC(C)(CC)C(=O)N[C@@H](Cc1ccc(NC(=O)c2ccnc3ccccc23)cc1)C(=O)O` (some centres unmarked) [Example 68], the inhibition at 0.01 µM came to 49%, the inhibition at 0.1 µM was 86% and the IC50 was 8.2 nM.

In the case of `COc1ccc(C2(C(=O)N[C@@H](Cc3ccc(N4C(=O)[C@H](CC(C)C)N(C)C4=O)cc3)C(=O)O)CCCCC2)cc1` [Example 144, N-[[1-(4-methoxyphenyl)cyclohexyl]carbonyl]-4-[(4S)-3-methyl-4-(2-methylpropyl)-2,5-dioxo-1-imidazolidinyl]-L-phenylalanine], the IC50 was 0.75 nM.

Consider `CC1CCC(C)(C(=O)N[C@@H](Cc2ccc(NC(=O)c3ccnc4ccccc34)cc2)C(=O)O)C1(C)C` (some centres unmarked) [Example 71], for which testing at 0.01 µM gave an inhibition of 51%, 0.1 µM produced 86% inhibition and the IC50 was found to be 2.5 nM.

Regarding `O=C(CC1CCCC1)NCCC1(C(=O)N[C@@H](Cc2ccc(NC(=O)c3c(Cl)cccc3Cl)cc2)C(=O)O)CCCC1` [Example 164], the IC50 turned out to be 6.2 nM.

As to `CCCCC(C)(CC)C(=O)N[C@@H](Cc1ccc(NC(=O)[C@H](Cc2ccc(O)cc2)NC(C)=O)cc1)C(=O)O` (some centres unmarked) [Example 91], the IC50 was 40 nM.

Turning to `O=C(Nc1ccc(C[C@H](NC(=O)C2(c3ccccc3)CCCCC2)C(=O)O)cc1)c1ccnc2ccccc12` [Example 77], the inhibition at 0.01 µM is 67%, the inhibition at 0.1 µM was 93% and the IC50 was found to be 5.6 nM.

For the compound `CCCCC(C)(CC)C(=O)NC(Cc1ccc(NC(=O)CCN2CCCCC2)cc1)C(=O)O` (centres unmarked) [Example 87], the IC50 worked out at 1.5 nM.

As to `CC1(C)C2CCC1(C(=O)NC(Cc1ccc(NC(=O)c3c(Cl)cccc3Cl)cc1)C(=O)O)C(=O)C2` (centres unmarked) [Example 49], the IC50 is 4.7 nM.

“4-[[(4-Cyano-4-phenyl-1-piperidinyl)carbonyl]amino]-L-phenylalanine on Wang Resin [Example 116]”: the IC50 was 0.88 nM.

For the compound `COc1ccc(CC2(C(=O)N[C@@H](Cc3ccc(N4C(=O)c5ccncc5C4=O)cc3)C(=O)O)CCCC2)cc1` [Example 109, 4-(2,3-Dihydro-1,3-dioxo-1H-pyrrolo[3,4-c]pyridin-2-yl)-N-[[1-[(4-methoxyphenyl)methyl]cyclopentyl]carbonyl]-L-phenylalanine], the IC50 came out at 62 nM.
